Laboratory results as given in patent publication US9315563B2, “Peptides that inhibit angiotensin converting enzyme and peptides with antioxidant activity purified from ovotransferrin and methods of producing and using the same” (The Governors of the University of Alberta, priority 2009, dated 2016).
“And” between values parts separate entries of the source, which are not always exact repeats. Equal entries are not always repeated.

Test: ORAC-FL assay (oxygen radical absorbance capacity)
Conditions: for ORAC: chemically synthesized peptides, Trolox equivalent; for Change of antioxidant activity on extension of the peptide: ORAC, relative to GWNI, WNIP or AGWNIP; for ORAC value (sign, in words): suggesting prooxidant activity
Procedure: Briefly, 80 mM AAPH and 200 nM fluorescein in 75 mM phosphate buffer at pH 7.4 were prepared for each experiment. For each run, 20 μL of antioxidant, and 80 μL of phosphate buffer (or 100 μL of Trolox standard solutions at final concentrations of 1 to 8 μM) were placed in wells of a 96-well microplate, followed by addition of 50 μL of the fluorescein solution. The mixture was preincubated for 15 min at 37° C. 50 μL of AAPH solution was added rapidly using a multichannel pipet. The microplate was immediately placed in a Fluoroskan Ascent microplate reader (Thermo Electron Corporation) with 485-P excitation and 538-P emission filters and the fluorescence recorded every minute for 100 min. All readings were recorded using Fluoroskan Ascent software. The area under the curve of fluorescence decay (AUC) was calculated using Graphpad prism software (trial version). Regression equations between AUC and antioxidant concentrations were calculated for all the samples. The ORAC value was calculated by dividing the slope of sample regression curve by the slope of Trolox regression curve. Final ORAC values were expressed as μmol of Trolox equivalent/mg of protein or peptide.

Row | Compound | ORAC | Change of antioxidant activity on extension of the peptide | ORAC value (sign, in words)
1 | Oc1cc(O)c2c(c1)O[C@H](c1ccc(O)c(O)c1)[C@@H](O)C2 [(+)-catechin, reference compound] | 14.9 μmol/μmol |  | 
2 | AGWNI | 8.55 ± 0.60 μmol/μmol | decreased the antioxidant activity by half | 
3 | AGWNIP | 7.64 ± 0.83 μmol/μmol | decreased the antioxidant activity by half | 
4 | AGWNIPIGT | 5.25 ± 0.26 μmol/μmol | did not decrease the antioxidant activity further | 
5 | AIEWEGIESGSVEQA | 0.95 ± 0.46 μmol/μmol |  | 
6 | GWNI | 13.90 μmol/μmol and 13.90 ± 1.05 μmol/μmol |  | 
7 | GWNIP | 6.19 ± 0.64 μmol/μmol | decreased the antioxidant activity by half | 
8 | IAAEVYEHTEGSTTSY | 2.39 ± 0.17 μmol/μmol |  | 
9 | IANNEADAISLDGGQVFEAG | 0.43 ± 0.05 μmol/μmol |  | 
10 | IEWEGIESGSVEQA | 0.73 ± 0.16 μmol/μmol |  | 
11 | LGFEY | 9.79 ± 0.55 μmol/μmol |  | 
12 | LGFEYY | 7.25 ± 0.71 μmol/μmol |  | 
13 | LSKAQSDFG | −1.40 ± 0.69 μmol/μmol |  | negative ORAC values
14 | LVEKGDVAFI | −0.07 ± 0.03 μmol/μmol |  | negative ORAC values
15 | PIAAEVYEHTEGSTTSY | 1.68 ± 0.03 μmol/μmol |  | 
16 | VIPMGL | 2.89 ± 0.15 μmol/μmol |  | 
17 | WNIP | 15.47 μmol/μmol and 15.47 ± 0.68 μmol/μmol |  | 
